{"source": "patent US20170265459A1", "about": "“PROPAGULE COATINGS” (E I DU PONT DE NEMOURS AND COMPANY, priority 2014, published 2017)", "origin": "cited, not measured here", "data": [{"smiles": "CNC(=O)c1cc(C#N)cc(C)c1NC(=O)c1cc(Br)nn1-c1ncccc1Cl", "note": "[Cyantraniliprole, cyantraniliprole]", "values": [{"measurement": "water solubility at 20° C.", "result": "about 14.2 milligram per liter"}]}, {"smiles": "CNC(=O)c1cc(Cl)cc(C)c1NC(=O)c1cc(Br)nn1-c1ncccc1Cl", "note": "[Chlorantraniliprole, chlorantraniliprole]", "values": [{"measurement": "water solubility at 20° C.", "result": "about 1 milligram per liter"}]}]}
